What was measured:
HeLa cells = test: Intracellular Ca2+ measurement in HeLa cells with siRNA knockdown of PIEZO1/PIEZO2; type: cell-based, human; settings: 10 μM; for Ca2+ response after PIEZO1 depletion / Ca2+ response after PIEZO2 depletion: HeLa cells; for Ca2+ response after PIEZO1 depletion: siPIEZO1; for Ca2+ response after PIEZO2 depletion: siPIEZO2
Experimental: Hela (ATCC Cat #CRM‐CCL‐2, RRID:CVCL_0030) and HEK 293 (ATCC Cat #CRL‐1573, RRID:CVCL_0045) cells were purchased from ATCC and maintained in DMEM supplemented with 10% heat‐inactivated fetal calf serum, 100 U·ml^−1 penicillin and 100 μg·ml^−1 streptomycin (Sigma‐Aldrich).
Cells were transfected using Opti‐MEM™ I Reduced Serum Medium (Thermo Fisher Scientific) and Lipofectamine 2000 (Thermo Fisher Scientific). For transfection of cells in six‐well plates, […] short‐interfering RNA (siRNA) (control siRNA [siCtrl]: Dharmacon ON‐TARGETplus Non‐targeting Control Pool, D‐001810‐10‐05; siRNA targeted to PIEZO2 expression [siPIEZO2]: Dharmacon ON‐TARGETplus SmartPool PIEZO2, L‐013925‐02‐0005; and PIEZO1: Sigma‐Aldrich, GCAAGUUCGUGCGCGGAUU[DT][DT]) and 3 μl of Lipofectamine 2000 complexed in 200 μl of Opti‐MEM were added to 0.8 ml cell culture medium per well. The culture medium was changed 4 h post transfection, and cells were used for experiments 48 h later.
HEK 293‐TREx cells and their stably transfected derivatives or transiently transfected HEK 293 or HeLa cells were seeded at a density of 7.5 × 10^4 cells per well into poly‐D‐lysine‐coated 96‐well plates. The plates were either commercially pre‐coated with poly‐D‐lysine (Greiner Bio‐One #655946) or (Greiner Bio‐One #655090) were coated in‐house with 35 μl of a 10 μg·ml^−1 poly‐D‐lysine (Bio‐Techne, Cultrex # 3439‐100‐01) in sterile deionised water per well for at least 24 h and rinsed three times with 100 μl per well sterile D‐PBS before addition of cells. HUVECs were seeded into tissue culture‐treated 96‐well plates (Greiner Bio‐One #655090) at a density of either 2.5 × 10^4 cells 24 h before experimentation or 1.25 × 10^4 cells 48 h before experimentation. Cells were incubated with 2 μM Fura‐2‐AM (Molecular Probes™) in the presence of 0.01% (wt./vol.) pluronic F127 (Sigma‐Aldrich #P2443) in standard bath solution (SBS) for 1 h at 37°C. Cells were washed with SBS for 30 min at room temperature. Alternatively, if inhibitors were being tested, these were added at this time, immediately following a wash in SBS. (−)‐Englerin A (Akbulut et al., [2015]) was used in SBS containing 0.01% pluronic acid as a dispersing agent to minimise aggregation of compound. Unless otherwise stated, the final concentration of DMSO was 0.2% (vol./vol). Working 2000× stock solutions of test compounds were freshly made in DMSO and diluted 1000‐fold in SBS during the 30 min SBS wash/inhibitor pre‐incubation period to obtain 2× solutions for injection. When testing the highest concentration of Yoda1, KC159 and KC289 (30 μM), the final DMSO concentration was 0.6% (vol./vol.). Measurements were made at room temperature on a 96‐well fluorescence plate reader (FlexStation 3, Molecular Devices, Sunnyvale, CA, USA) controlled by SoftMax Pro software v7.0.3. Recipient wells containing 80 μl SBS/0.2% (vol./vol.) DMSO vehicle or inhibitor compound received 80 μl 2× compound at an injection rate of 1 μl·s^−1, and the pipette introduced liquids from a height setting of 70 μl. No trituration was performed. For recordings using Fura‐2, the change in intracellular Ca was indicated as the ratio of Fura‐2 emission (510 nm) intensities at 340 and 380 nm excitation. Photomultipliers were set to medium sensitivity. SBS contained 130 mM NaCl, 5 mM KCl, 8 mM D‐glucose, 10 mM HEPES, 1.2 mM MgCl2 and 1.5 mM CaCl2, and the pH was adjusted to 7.4 with NaOH. The solution was filtered through a 0.2 μm bottle‐top filter prior to use and handled aseptically thereafter.

[1] = In-house aqueous solubility in universal aqueous buffer; type: physicochemical; settings: for Solubility in aqueous buffer relative to Yoda1: universal aqueous buffer pH 7.4
Experimental: Standard curves for each test compound were constructed. DMSO‐dissolved test compounds were added to universal aqueous buffer (45 mM ethanolamine, 45 mM KH2PO4 and 45 mM KOAc, pH 7.4): acetonitrile 80:20 (298.5 μl) at a final DMSO concentration of 0.5%. Samples were incubated at room temperature with 300 rpm shaking for 30 min; 200 μl of each well was transferred to a 96‐well polypropylene V‐bottomed collection plate, and absorbance readings were taken at 250–500 nm in 10 nm increments. Thus, the λ max was identified at which concentration versus absorbance was plotted to provide standard curves.
After filtration through hydrophilic PTFE 0.2 μm filters, 160 μl sample was transferred to wells of a 96‐well polypropylene V‐bottomed collection plate and 40 μl acetonitrile was added to each well. Absorbance readings were taken at 250–500 nm in 10 nm increments. Solubility was calculated at the appropriate λ max with reference to the standard curve.

SMILES | Ca2+ elevations in HeLa cells (HeLa cells) | Ca2+ response after PIEZO1 depletion (HeLa cells) | Ca2+ response after PIEZO2 depletion (HeLa cells) | Solubility in aqueous buffer relative to Yoda1 [1] | solubility at 1.5 h ([1]; universal aqueous buffer, pH 7.4, aqueous buffer, kinetic from dmso stock, lower limit of detection 0.1 µM, read-out: Estimated solubility in universal aqueous buffer) [µM]
O=C([O-])c1ccc(-c2nnc(SCc3c(Cl)cccc3Cl)s2)cc1.[K+] [KC289] | evoked Ca^2+ elevations | partly suppressed | partly suppressed | at least 160 times | 
O=C(O)c1ccc(-c2nnc(SCc3c(Cl)cccc3Cl)s2)cc1 [KC159] | evoked Ca^2+ elevations | partly suppressed | partly suppressed | at least 160 times | 
Clc1cccc(Cl)c1CSc1nnc(-c2cnccn2)s1 [Yoda1, 2‐[5‐[[(2,6‐dichlorophenyl)methyl]thio]‐1,3,4‐thiadiazol‐2‐yl]pyrazine] | evoked Ca^2+ elevations | partly suppressed | partly suppressed |  | < 0.1

Source: paper PMC10952572, “Improved PIEZO1 agonism through 4‐benzoic acid modification of Yoda1” (British Journal of Pharmacology, 2023)
